In article PMC6736837, “^18F-labelled triazolyl-linked argininamides targeting the neuropeptide Y Y1R for PET imaging of mammary carcinoma” (Scientific Reports, 2019):
Entries after “also recorded” stand apart in the source; their conditions may differ.

What was measured:
[1] = Octanol-water distribution coefficient logD7.4, shake flask method; format: physicochemical; conditions: 1-octanol/PBS, pH 7.4, PBS/1-octanol, read-out: logD7.4 experimental
Procedure: The lipophilicity of the radioligands was determined by the distribution coefficient logD7.4. The respective radioligand (10 µL, about 25 kBq) was added to a mixture of PBS (500 µL) and 1-octanol (500 µL) and the emulsion was vortexed for 1 min. After centrifugation 3 × 100 µL were taken of each layer and analysed by a γ-counter. The partition coefficient was calculated as logD7.4=log(cpmoctanol/cpmPBS) . Data were expressed as mean values ± SD from three experiments.

MCF-7-Y1 tumours = test: Small animal PET in MCF-7-Y1 xenografted nude mice; format: in vivo, mouse; conditions: 45–60 min p.i., blocking by co-injection of BIBP3226 1 mg/kg
Procedure: For the NPY Y1R xenograft model, female NMRI nude mice (HsdCpb:NMRI-Foxn1^nu) were purchased from Envigo (Horst, The Netherlands) at the age of three weeks. Mice were kept in groups of four to five animals in individually ventilated cages in a twelve hours dark/light cycle with unlimited access to water and standard chow. At the age of nine to ten weeks one 17β-estradiol pellet per animal (0.72 mg per pellet, 3 mm diameter) with a 60-day release time (Innovative Research of America, Sarasota, FL, USA) was subcutaneously implanted on the back under isoflurane anesthesia. After three days, approximately 10^6 MCF-7-Y1 tumour cells (in 50 µL PBS) were mixed with Matrigel (50 µL, BD Biosciences, Heidelberg) and then injected subcutaneously at the back. Tumour diameters and weight of the animals were recorded five times a week. Imaging studies were performed four weeks after inoculation of the cells.
Small animal PET scans were performed on an Inveon™ microPET scanner (Siemens Healthcare, Erlangen) under isoflurane anesthesia (3%). Tumour bearing mice (26–35 g, n = 2–3 for each radioligand) were intravenously injected into the tail vein with the respective radiotracer (1.5–4.2 MBq in about 100 µL of saline) under isoflurane anesthesia (3–4%). Static images were acquired for 15 min starting 45 min p.i. of the radiotracer. For displacement studies, the same mice were co-injected with the radiotracer ([^18F]12 and [^18F]13 only) and BIBP3226 (1 mg/kg). Images were corrected for decay and attenuation and MAP (iterative maximum a posteriori) images were reconstructed using the built-in software of the PET scanner. Evaluation of the MAP images was conducted using the software PMOD (version 3.6, PMOD Technologies LLC, Zürich). Regions of interests (ROIs) were drawn and radioactivity concentration within these regions was obtained from the mean values and calculated as percentage of the total injected dose per gram tissue (% ID/g).

[2] = Biodistribution in healthy mice; format: in vivo, mouse; conditions: for kidney uptake: at 30 and 90 min p.i.
Procedure: Biodistribution studies were conducted using female NMRI outbred mice (HsdWin:NMRI) purchased from Envigo (Horst, The Netherlands). Mice were kept in groups of four to five animals in individually ventilated cages in a twelve hours dark/light cycle with unlimited access to water and standard chow. At the age of eight to nine weeks six animals per radiotracer were injected with 2–4 MBq of the respective radiotracer under isoflurane anesthesia. Mice were sacrificed by cervical dislocation 30 or 90 min p.i. of the radiotracer. Blood as well as the organs/tissues lung, liver, kidneys, heart, spleen, brain, muscle, intestines, gall bladder and bones were harvested and analysed in the γ-counter. Samples were weighed and radioactivity in different tissues was calculated as percentage of the total injected dose per gram tissue (%ID/g).

MCF-7-Y1 tumour slices = test: In-vitro autoradiography on MCF-7-Y1 tumour xenograft slices; format: binding, human; conditions: blocking with 1 µM and 10 µM BIBP3226
Procedure: MCF-7-Y1 tumour bearing mice were sacrificed by cervical dislocation under deep isoflurane anesthesia and tumours were excised and subsequently frozen in a hexane/dry ice bath (−70 °C). MCF-7-Y1 tumour slices (14 µm) were prepared on a cryostat microtome HM 500 O (Microm, Walldorf) and thaw-mounted on Histobond® adhesive glass slides (Marienfeld, Lauda-Königshofen).
For autoradiography studies slides were thawed and pre-incubated for 15 min in incubation buffer (50 mM TRIS HCl, pH 7.4, containing 120 mM NaCl, 5 mM MgCl2,) at room temperature. Thereafter, 800 µL of incubation buffer, containing 0.1 MBq of the respective radiotracer were pipetted on the slide and incubated at room temperature for 60 min. For displacement studies BIBP3226 (1 µM or 10 µM) was added to the incubation buffer before pipetting on the slides. Afterwards slides were washed by placing in ice cold incubation buffer (3 × 2 min) followed by short dipping in ice cold distilled water. Slides were carefully dried in a stream of warm air and finally placed on an autoradiography film (Fuji Imaging Plate BAS-IP SR 2025 E, Fujifilm, Düsseldorf) overnight prior to readout (25 µm resolution) on the autoradiograph (HD-CR-35 Bio, Raytest, Straubenhardt) and analysis with the software AIDA (Raytest). Additional sections were stained with hematoxylin and eosin (H&E) for comparison with the autoradiography images.

[3] = Binding to human plasma proteins by gel filtration; format: in vitro ADME; conditions: 37 °C, read-out: Free fraction in plasma
Procedure: The binding of ^18F-labelled compounds to plasma proteins was determined using gel filtration columns(illustra™ MicroSpin™ G-50 Columns, GE Healthcare Life Sciences, Freiburg). An aliquot of the radiotracer (approx. 100 kBq) was added to 200 µL of saline, and 100 µL of human plasma, respectively. Both samples were incubated at 37 °C for 10 min. MicroSpin™ columns were prepared according to the user instruction. Then 25 µL of the incubated radiotracer were given onto the columns and the devices were centrifuged (2000 × g, 2 min). Eluate and solid phase were analysed in the γ-counter (Wallac Wizard). The percentage of unbound radioligand was calculated as %free=cpmsolidphase/cpmsolidphase+cpmeluate . The sample in saline was used as control.

logD [1]	uptake in the gall bladder ([2]; after 90 min)	kidney uptake [2]	fraction unbound at 10 min [3]	SMILES	tumour visualisation / specific tumour accumulation in PET (MCF-7-Y1 tumours)	specific binding to MCF-7-Y1 tumour slices (autoradiography) (MCF-7-Y1 tumour slices)
0.78 ± 0.005	up to 600 %ID/g	less than 5 %ID/g	0.42	N/C(=N/C(=O)NCc1cn([C@@H]2OC(C[18F])[C@@H](O)C(O)C2O)nn1)NCCC[C@@H](NC(=O)C(c1ccccc1)c1ccccc1)C(=O)NCc1ccc(O)cc1 (stereo partly drawn) [[^18F]11, (2R)‐5‐{[(1Z)‐Amino({[({1‐[(2R,5S)‐6‐([^18F]fluoromethyl)‐3,4,5‐trihydroxyoxan‐2‐yl]‐1H‐1,2,3‐triazol‐4‐yl}methyl)carbamoyl]imino})methyl]amino}‐2‐(2,2‐diphenylacetamido)‐N‐[(4‐hydroxyphenyl)-methyl]pentanamide]	visualision of the tumour with the fluoroglycosylated radiotracer [^18F]11 failed	very low specific binding
1.49 ± 0.003	–	less than 5 %ID/g	0.37	N/C(=N/C(=O)NCc1cn(CCOCCOCCOCC[18F])nn1)NCCC[C@@H](NC(=O)C(c1ccccc1)c1ccccc1)C(=O)NCc1ccc(O)cc1 [[^18F]13, (2R)‐5‐{[(1Z)‐Amino[({[1‐(2‐{2‐[2‐(2‐[^18F]fluoroethoxy)ethoxy]ethoxy}ethyl)‐1H‐1,2,3‐triazol‐4‐yl]methyl}carbamoyl)imino]methyl]amino}‐2‐(2,2‐diphenylacetamido)‐N‐[(4‐hydroxyphenyl)-methyl]pentanamide]	displaceable and thus specific Y1R-mediated tumour acculuation in vivo; also recorded: enhanced and specific tumour uptake	marked specific binding
